Laboratory results taken from patent EP0907364B1, “SUSTAINED RELEASE PHARMACEUTICAL COMPOSITIONS COMPRISING A DIBENZOTHIAZEPINE DERIVATIVE” (AstraZeneca AB, priority 1996, dated 1997).
Values after ≈ are worked out from the molar mass of the structure shown.

Experiment: physchem
Conditions: 20 °C, water, thermodynamic from solid

- solubility thermodynamic: 3290 µg/mL (≈ 8.58 mM)
SMILES: OCCOCCN1CCN(C2=Nc3ccccc3Sc3ccccc32)CC1 [11-[4-[2-(2-hydroxyethoxy)ethyl]-1-piperazinyl]dibenzo[b,f][1,4]-thiazepine]
